Where a name gives a salt, the structure may show the parent alone. Values belong to the compound of their own block, whether it stands above or below them.
Columns and labels:
K562/A02 [1] = test: Cytotoxicity against human K562/A02 cells over expressing P-gp at 20 uM incubated for 72 hrs by CCK-8 assay; type: toxicity, cell-based; settings: k562/a02, 72 h
K562/A02 [2] = test: Reversal of multi-drug resistance in human K562/A02 cells assessed as decrease in adriamycin IC50 preincubated with compound followed by ADR addition for 48 hrs; type: functional, cell-based
[3] = biological target: T1, ATP-dependent translocase ABCB1 (Homo sapiens, UniProt P08183); test: Induction of thermal stabilization of P-glycoprotein in human K562/A02 cells at 50 uM under 25 to 61 degreeC incubated for 1 hrs by CETSA based Western blot analysis; type: cell-based; settings: k562/a02, 1 h
T1 sequence (P08183 whole entry): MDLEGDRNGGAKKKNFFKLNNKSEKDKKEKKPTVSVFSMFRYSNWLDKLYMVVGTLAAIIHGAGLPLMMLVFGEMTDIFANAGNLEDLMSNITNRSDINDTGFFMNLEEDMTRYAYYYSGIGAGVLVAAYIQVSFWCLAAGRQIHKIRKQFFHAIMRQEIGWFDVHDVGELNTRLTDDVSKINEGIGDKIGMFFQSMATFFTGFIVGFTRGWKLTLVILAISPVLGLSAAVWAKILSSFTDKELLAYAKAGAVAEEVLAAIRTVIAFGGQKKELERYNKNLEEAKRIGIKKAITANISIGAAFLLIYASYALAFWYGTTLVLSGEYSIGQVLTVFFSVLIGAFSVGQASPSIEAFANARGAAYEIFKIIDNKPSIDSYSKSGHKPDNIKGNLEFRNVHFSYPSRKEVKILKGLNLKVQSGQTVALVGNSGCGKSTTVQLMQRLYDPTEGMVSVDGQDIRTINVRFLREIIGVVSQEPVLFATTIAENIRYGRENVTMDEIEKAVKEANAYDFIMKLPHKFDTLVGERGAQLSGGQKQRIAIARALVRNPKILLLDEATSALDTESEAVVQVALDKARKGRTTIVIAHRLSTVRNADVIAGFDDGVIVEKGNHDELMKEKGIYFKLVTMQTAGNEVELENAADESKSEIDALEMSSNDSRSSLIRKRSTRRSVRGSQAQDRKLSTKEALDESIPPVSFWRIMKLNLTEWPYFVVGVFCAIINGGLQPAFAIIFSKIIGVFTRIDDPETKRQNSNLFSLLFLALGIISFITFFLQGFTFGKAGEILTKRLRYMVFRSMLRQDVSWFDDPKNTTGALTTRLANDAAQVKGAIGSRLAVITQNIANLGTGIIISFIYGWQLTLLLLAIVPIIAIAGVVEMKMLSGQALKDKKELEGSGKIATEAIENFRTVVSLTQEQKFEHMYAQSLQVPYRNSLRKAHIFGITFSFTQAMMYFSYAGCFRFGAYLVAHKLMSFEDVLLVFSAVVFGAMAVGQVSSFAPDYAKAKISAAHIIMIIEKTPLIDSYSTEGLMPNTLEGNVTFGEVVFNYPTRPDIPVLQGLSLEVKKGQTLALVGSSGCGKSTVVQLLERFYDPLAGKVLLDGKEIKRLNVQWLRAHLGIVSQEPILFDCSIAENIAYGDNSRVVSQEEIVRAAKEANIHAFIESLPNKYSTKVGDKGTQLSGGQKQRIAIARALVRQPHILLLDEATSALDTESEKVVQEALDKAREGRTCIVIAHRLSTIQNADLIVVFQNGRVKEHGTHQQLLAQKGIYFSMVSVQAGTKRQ

K562/A02 [4] = test: Effect on P-glycoprotein expression at protein level in human K562/A02 cells at 0.5 to 8.0 uM incubated for 24 hrs by Western blot analysis; type: functional, cell-based; settings: dose 0.5-8 µM
[5] = biological target: T1, ATP-dependent translocase ABCB1; test: Inhibition of P-glycoprotein in human K562/A02 cells assessed as accumulation of rhodamine incubated for 4 hrs by flow cytometric analysis; type: cell-based; settings: k562/a02, 4 h, at 0.5 to 8 µM, dose 0.5-8 µM
K562/A02 [6] = test: Effect on P-glycoprotein expression at mRNA level in human K562/A02 cells at 0.5 to 8.0 uM by q-PCR analysis; type: functional, cell-based; settings: dose 0.5-8 µM
K562/A02 [7] = test: Antiproliferative activity against human K562/A02 cells assessed as reduction in cell viability incubated for 72 hrs by CCK-8 assay; type: functional, cell-based; settings: K562/A02, 72 h

Structure (SMILES): COc1cccc(C(=O)Nc2ccccc2/N=N/c2ccc(CCN3CCc4cc(OC)c(OC)cc4C3)cc2)c1
Activity (K562/A02 [1]): Non-toxic

Structure (SMILES): COc1cc2c(cc1OC)CN(CCc1ccc(/N=N/c3ccccc3NC(=O)c3cccc(Cl)c3)cc1)CC2
Activity (K562/A02 [1]): Non-toxic

Structure (SMILES): COc1cc2c(cc1OC)CN(CCc1ccc(/N=N/c3ccccc3NC(=O)c3ccccc3[N+](=O)[O-])cc1)CC2
Activity (K562/A02 [1]): Non-toxic

Structure (SMILES): COc1cc2c(cc1OC)CN(CCc1ccc(/N=N/c3ccccc3NC(=O)c3ccc(C(C)(C)C)cc3)cc1)CC2
Activity (K562/A02 [1]): Non-toxic

Structure (SMILES): COc1cc2c(cc1OC)CN(CCc1ccc(NC(=O)c3ccccc3/N=N/c3cccc(Cl)c3)cc1)CC2
Activity (K562/A02 [1]): Non-toxic

Structure (SMILES): COc1ccc(C(=O)Nc2ccccc2/N=N/c2ccc(CCN3CCc4cc(OC)c(OC)cc4C3)cc2)cc1
Activity (K562/A02 [1]): Non-toxic

Structure (SMILES): COc1ccccc1/N=N/c1ccccc1C(=O)Nc1ccc(CCN2CCc3cc(OC)c(OC)cc3C2)cc1
Activity (K562/A02 [1]): Non-toxic

Structure (SMILES): COc1cc2c(cc1OC)CN(CCc1ccc(/N=N/c3ccccc3NC(=O)c3ccc(F)c(F)c3)cc1)CC2
Activity (K562/A02 [1]): Non-toxic

Structure (SMILES): COc1cc2c(cc1OC)CN(CCc1ccc(/N=N/c3ccccc3NC(=O)c3ccc(C)cc3)cc1)CC2
Activity (K562/A02 [1]): Non-toxic

Structure (SMILES): COc1cc2c(cc1OC)CN(CCc1ccc(/N=N/c3ccccc3NC(=O)c3ccccc3)cc1)CC2
Activity (K562/A02 [1]): Non-toxic

Structure (SMILES): COc1cc2c(cc1OC)CN(CCc1ccc(/N=N/c3ccccc3NC(=O)c3ccc(C)c(C)c3)cc1)CC2
Activity (K562/A02 [1]): Non-toxic

EC50 (K562/A02 [2]): 29.4 nM
Structure (SMILES): COc1ccc(C(=O)Nc2ccccc2C(=O)Nc2ccc(CCN3CCc4cc(OC)c(OC)cc4C3)cc2)cc1OC

Structure (SMILES): COc1cc2c(cc1OC)CN(CCc1ccc(/N=N/c3ccccc3NC(=O)c3ccc(Cl)c(Cl)c3)cc1)CC2
Activity (K562/A02 [1]): Non-toxic

Structure (SMILES): COc1cc2c(cc1OC)CN(CCc1ccc(NC(=O)c3ccccc3/N=N/c3ccc(Cl)cc3)cc1)CC2
Activity (K562/A02 [1]): Non-toxic

EC50 (K562/A02 [2]): 120 nM
Activity [3]: Active
inhibition (INH) [5]: Dose-dependent-effect
Structure (SMILES): COc1cc2c(cc1OC)CN(CCc1ccc(/N=N/c3ccccc3NC(=O)c3ccccc3OC)cc1)CC2
Activity (K562/A02 [4]): Active; Little Effect Of Compound Observed
Activity (K562/A02 [1]): Non-toxic
Activity (K562/A02 [6]): Active; Little Effect Of Compound Observed

IC50 (K562/A02 [7]): 2160 nM
Structure (SMILES): COc1cccc2c1C(=O)c1c(O)c3c(c(O)c1C2=O)C[C@@](O)(C(=O)CO)C[C@@H]3O[C@H]1C[C@H](N)[C@H](O)[C@H](C)O1 [DOXORUBICIN HYDROCHLORIDE]

Structure (SMILES): COc1cc2c(cc1OC)CN(CCc1ccc(NC(=O)c3ccccc3/N=N/c3ccc(C)cc3)cc1)CC2
Activity (K562/A02 [1]): Non-toxic

Structure (SMILES): COc1cc2c(cc1OC)CN(CCc1ccc(/N=N/c3ccccc3NC(=O)c3ccccc3Cl)cc1)CC2
Activity (K562/A02 [1]): Non-toxic

Structure (SMILES): COc1cc2c(cc1OC)CN(CCc1ccc(/N=N/c3ccccc3NC(=O)c3cc(OC)c(OC)c(OC)c3)cc1)CC2
Activity (K562/A02 [1]): Non-toxic

Structure (SMILES): COc1cc2c(cc1OC)CN(CCc1ccc(/N=N/c3ccccc3NC(=O)c3ccc(Cl)cc3)cc1)CC2
Activity (K562/A02 [1]): Non-toxic

Structure (SMILES): COc1cc2c(cc1OC)CN(CCc1ccc(/N=N/c3ccccc3NC(=O)c3cccc([N+](=O)[O-])c3)cc1)CC2
Activity (K562/A02 [1]): Non-toxic

Structure (SMILES): COc1ccc(C(=O)Nc2ccccc2/N=N/c2ccc(CCN3CCc4cc(OC)c(OC)cc4C3)cc2)cc1OC
Activity (K562/A02 [1]): Non-toxic

Structure (SMILES): COc1cc2c(cc1OC)CN(CCc1ccc(/N=N/c3ccccc3NC(=O)c3ccc([N+](=O)[O-])cc3)cc1)CC2
Activity (K562/A02 [1]): Non-toxic

Structure (SMILES): COc1cc2c(cc1OC)CN(CCc1ccc(NC(=O)c3ccccc3/N=N/c3ccccc3)cc1)CC2
Activity (K562/A02 [1]): Non-toxic

Source: ChEMBL document CHEMBL6092160, “Discovery of novel third generation P-glycoprotein inhibitors bearing an azo moiety with MDR-reversing effect” (Eur J Med Chem, 2024)
